Measured values as given in patent publication EP4653017A1, “ANTIBODY-DRUG CONJUGATE AND USE THEREOF” (Tyligand Bioscience (Shanghai) Limited, priority 2023, dated 2024).
pEC50, pIC50: −log10 of the molar value. Counter-ions that a name gives are not always drawn.

Experiments:
[1] = tested on: THP-1 cells; test: Activation of IFN-β secretion by THP-1 cells (IFN-beta ELISA); format: cell-based, human
[2] = tested on: A20; test: Inhibition of tumor cell line proliferation (Table 3), A20; format: cell-based; details: A20, Mouse B lymphoma cells
[3] = tested on: A375; test: Inhibition of tumor cell line proliferation (Table 3), A375; format: cell-based; details: A-375; A375, Human melanoma cells
[4] = tested on: B16F10; test: Inhibition of tumor cell line proliferation (Table 3), B16F10; format: cell-based; details: B16-F10; B16F10, Mouse melanoma cells
[5] = tested on: Daudi; test: Inhibition of tumor cell line proliferation (Table 3), Daudi; format: cell-based; details: Human Burkitt's lymphoma cells
[6] = tested on: FaDu; test: Inhibition of tumor cell line proliferation (Table 3), FaDu; format: cell-based; details: Human pharyngeal squamous carcinoma cell
[7] = tested on: MC38; test: Inhibition of tumor cell line proliferation (Table 3), MC38; format: cell-based; details: MC-38; MC38, Mouse colon cancer cells
[8] = tested on: SK-MEL5; test: Inhibition of tumor cell line proliferation (Table 3), SK-MEL5; format: cell-based; details: SK-MEL-5; SK-MEL5, Human melanoma cells
[9] = tested on: 4T1; test: Inhibition of tumor cell line proliferation (Table 3), 4T1; format: cell-based; details: 4T1, Mouse breast cancer cells
[10] = tested on: CT26 cells; test: CT26 syngeneic mouse bilateral transplanted tumor model; format: in vivo, BALB/c mice; details: left (untreated) tumor; 50 µg compound/mouse (2.5 mg/kg) intratumorally into right flank on days 0 and 4; day 13 after treatment
Description: When tumors grew to an average volume of 100 mm^3, treatments were randomized and started based on tumor size and mouse body weight. The first day of dosing was Day 0. Two doses were administered, 50 µg compound/mouse (i.e., 2.5 mg/kg) was injected intratumorally into the right flank on days 0 and 4, and the same volume of PBS (Hyclone Company, Cat. No. #SH30258.01) was used as a control. The left tumor was left untreated. Control mice were sacrificed after 13 days of dosing and treated mice were sacrificed 21 days later. During the experiment, the tumor volume and body weight were measured three times a week on the left and right sides, and the tumor volume was calculated as V = D × d × d/2 (wherein D represents the long diameter of the tumor and d represents the short diameter of the tumor).

[11] = tested on: lymphoma Raji-hClaudin 18.2 cells; test: Inhibition of Raji-hClaudin 18.2 cell proliferation (CTG assay); format: cell-based
Description: Raji-hClaudin 18.2 cells (provided by Elpiscience) were cultured at 37°C, 5% CO2 and 95% humidity in RPMI 1640 + 10% FBS (ExCell Bio, Cat. No. #FND500) + 10 ug/mL Blasticidin (Beyotime, Cat. No. #ST-018), the cells in logarithmic growth phase were harvested and counted, and cell viability was measured using Countstar automated cell counter based on classical trypan blue staining principle to ensure that the cell viability was above 90%. The cell concentration was adjusted, 135 µL of cell suspension was added into 96 well clear flat bottom black wall plate (Corning, Cat. No. #3904), 10000/well, and the cells were incubated in 96 well plate at 37°C and 5% CO2.
The cells in the 96 well plates that had been dosed were incubated at 37°C, 5% CO2 for 5 days before performing CTG assay. The plate was equilibrated to room temperature for 30 min and CTG Reagent (CellTiter-Glo® Luminescent Cell Viability Assay (Promega, Cat. No. #G7573) was melt, 50 µL of CTG Solution was added to each well, and shaked on an orbital shaker for 2 min to lyse the cells. The plate was left at room temperature for 10 min to stabilize the cold light signal and the cold light value was read (EnVision ® Multifunctional Plate Reader, PerkinElmer#2105). [formula] […]

[12] = tested on: human ovarian cancer SK-OV-3; test: SK-OV-3 subcutaneous xenograft model, Example 7 (ADC-1, ADC-2); format: in vivo, BALB/c Nude mice; details: 0.1 mg/kg; for Tumor growth inhibition (TGI) / Rate of complete tumor regression (TV = 0 mm^3): Day 21; for Rate of complete tumor regression (TV = 0 mm^3): 5 mice
Description: 0.1 mL (1×10^7) of human ovarian cancer SK-OV-3 cells (purchased from ATCC, Cat#HTB-77) (PBS: matrigel volume ratio of 1:1) was subcutaneously inoculated into the right posterior back of each mouse (BALB/c Nude mice, 6-8 weeks old, female, Jiangsu GemPharmatech Co., Ltd.). When the mean tumor volume reached approximately 150 mm^3, the mice were randomly divided into 9 experimental groups, with 5 mice in each group. […] Group 9 was received intratumoral injection of CDN-3 0.1 mg/kg on Days 0, 4, and 7 of the study for a total of 3 drug doses (see Table 4 for animal grouping). The vehicle was a PBS buffer. Tumor volume and body weight were measured twice weekly during the experimental period, and data was recorded. Tumor volume was calculated according to the formula in Example 3.

Nc1nc2c(ncn2[C@@H]2O[C@@H]3CO[P@@](=O)(S)O[C@H]4[C@H](F)[C@H](n5cnc6c(N)nc(Cl)nc65)O[C@@H]4CO[P@@](=O)(S)O[C@@H]2[C@@H]3O)c(=O)[nH]1 [CDN-3, (2',3')-cyclo-(Rp,Rp)-[2'-O-thiophosphodiester-guanosine]-[3'-O-thiophosphodiester-2-chloro-2'-deoxy-2'-fluoro-beta-adenosine]diammonium salt]
STING agonist activity (in words) ([1]; EC50 stronger than 2',3'-cGAMP, comparable to ADU-S100): significant STING agonist activity | pEC50 ([1]; Homo sapiens, THP-1, 24 h, read-out: THP-1 activity): 5.00 to 6.00 | pIC50 [2]: 7.49 | pIC50 [3]: 6.69 | pIC50 [4]: 5.06 | pIC50 [5]: 6.37 | pIC50 [6]: 6.30 | pIC50 [7]: 5.99 | pIC50 [8]: 6.30 | pIC50 [9]: 5.64 | growth inhibition rates of left tumors [10]: 91.2% | inhibition effects on Raji-hClaudin 18.2 cell proliferation (in words) [11]: strong inhibition effects | pIC50 ([11]; 120 h, Raji-hClaudin 18.2, 5 days incubation, top concentration 600 nM): 6.88 | Tumor Volume (mm^3, Day 21) ([12]; i.t., day 0, 4, 7): 540 ± 47 mm^3 | Tumor growth inhibition (TGI) ([12]; i.t., day 0, 4, 7): 39% | Rate of complete tumor regression (TV = 0 mm^3) ([12]; i.t., day 0, 4, 7): 0% (0/5) | Tumor Volume (mm^3, Day 21) ([12]; i.v., day0): 723 ± 140 mm^3 | Tumor growth inhibition (TGI) ([12]; i.v., day0): 10% | Rate of complete tumor regression (TV = 0 mm^3) ([12]; i.v., day0): 0% (0/5)
